Among the data in PubChem BioAssay (NCI) are GI50 and TGI values, retold here.

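A five-concentration, 48-hour dose response in 96-well plates underlies each endpoint, interpolated linearly between surrounding concentrations. At the GI50, growth is halved. The concentration for full growth arrest is given as TGI.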

Experiment in all cases: NCI-60 cell line screen, 48 h
Experiment [1] concerns SF-539 CNS.
Experiment [2] has as its system TK-10 renal.
Experiment [3] concerns OVCAR-4 ovarian.
The test system of experiment [4] is LOX IMVI melanoma.
Experiment [5] has as its system RXF 393 renal.
Experiment [6] concerns 786-0 renal.
In experiment [7] the test system is A549 NSCLC.
Experiment [8] deals with HOP-62 NSCLC.
Experiment [9] deals with NCI/ADR-RES ovarian.
Experiment [10] relates to NCI-H522 lung.

For the compound `O=C(CN1CCOCC1)Nc1ccc(Cn2nnc3c2C(=O)c2nnn(Cc4ccc(NC(=O)CN5CCOCC5)cc4)c2C3=O)cc1`, the GI50 in experiment [1] is 0.304 µM; in [2], 3.25 µM; in experiment [3], 0.303 µM; in experiment [4] it was 0.275 µM; in experiment [5], 1.34 µM; in experiment [6] it was 1.94 µM. In addition, the GI50 was 1.99 µM in experiment [7], 1.64 µM in experiment [8], more than 100 µM in experiment [9] and 0.191 µM in experiment [10]. The TGI was determined as 1.07 µM in experiment [1]; 24.4 µM in experiment [2]; 1.52 µM in experiment [3]; 1.35 µM in experiment [4]; 2.92 µM in experiment [5]; 5.27 µM in experiment [6]. Moreover, the TGI was 4.97 µM in [7], 3.46 µM in experiment [8], more than 100 µM in experiment [9] and 0.587 µM in experiment [10].

`O=C1/C(=C/c2ccc(Cl)cc2Cl)N=C(c2ccccc2)N1Cc1ccco1`: the GI50 in [1] is 23.7 µM; in experiment [2], 22.1 µM; in [3], 21.2 µM; in experiment [4], 50.5 µM; in experiment [5], 22.6 µM; in [6], 19.8 µM. Further, the GI50 is 27.1 µM in experiment [7], 18.4 µM in [8], 25.5 µM in experiment [9] and 18.9 µM in experiment [10]. Further, the TGI in [1] is 55.6 µM; in [2] it was 49.3 µM; in experiment [3] it was 50 µM; in [4] it was more than 100 µM; in experiment [5] it was 51.8 µM; in experiment [6], 41.2 µM. Moreover, the TGI in experiment [7] was found to be 71 µM; in experiment [8] it was 38.9 µM; in experiment [9], 57.9 µM; in [10], 48.4 µM.

As to `COc1ccc(/C(=C2\O[C@@H]([C@H]3COC(C)(C)O3)[C@H]3OC(C)(C)O[C@@H]23)c2cc(OC)c(OC)c(OC)c2)cc1O`, the GI50 in experiment [1] was 2.59 µM; in experiment [2] it was 23.4 µM; in experiment [3], 9.18 µM; in [4], 5.18 µM; in experiment [5], 2.12 µM; in [6], 21.1 µM. Besides, the GI50 in [7] is 23.2 µM; in experiment [8] it was 5.93 µM; in [9], 2.52 µM; in experiment [10], 2.73 µM. Moreover, the TGI in experiment [1] is 6.63 µM; in experiment [2] it was 61.4 µM; in experiment [3], more than 100 µM; in [4], more than 100 µM; in experiment [5] it was 5.89 µM; in experiment [6] it was 60.6 µM. Further, the TGI in [7] is more than 100 µM; in experiment [8] it was 25.5 µM; in experiment [9], 6.91 µM; in experiment [10] it was 9.08 µM.

`CCCCC(=O)OCC1OC(n2cnc3c(=S)nc[nH]c32)C(OC(=O)CCCC)C1OC(=O)CCCC` (stereo not given): the GI50 is 2.07 µM in experiment [1]; 0.608 µM in experiment [2]; 0.441 µM in [3]; 1.11 µM in experiment [4]; more than 71.4 µM in [5]; 2.24 µM in experiment [6]. Moreover, the GI50 in experiment [7] was more than 25.3 µM; in experiment [8], 1.01 µM; in experiment [9], 3.51 µM; in experiment [10], 0.498 µM. The TGI in experiment [1] was more than 62 µM; in experiment [2], more than 100 µM; in experiment [3], more than 100 µM; in experiment [4], more than 100 µM; in [5], more than 100 µM; in experiment [6], more than 100 µM. For the same compound, the TGI in experiment [7] was more than 100 µM; in [8], more than 100 µM; in experiment [9] it was more than 100 µM; in [10], 60.2 µM.

Take `O=c1oc2ccc(F)cc2c(=O)n1-c1ccc(F)cc1F`: the GI50 is 3.31 µM in experiment [1]; 5.07 µM in experiment [2]; 3.02 µM in [3]; 3.79 µM in [4]; 2.52 µM in experiment [5]; 3.13 µM in [6]. Further, the GI50 is 3.35 µM in experiment [7], 2.39 µM in experiment [8], 3.24 µM in experiment [9] and 2.61 µM in experiment [10]. The TGI in experiment [1] is 13.8 µM; in experiment [2], 36.9 µM; in experiment [3], 30.2 µM; in [4], 22 µM; in [5] it was 6.99 µM; in experiment [6], 11.4 µM. Moreover, the TGI was more than 100 µM in experiment [7], 8.05 µM in experiment [8], more than 100 µM in [9] and 12.3 µM in experiment [10].

For the compound `CC1CCC2(C(=O)O)CCC3(C)C(=CCC4C5(C)CC(O)C(O)C(C)(CO)C5C(O)CC43C)C2C1C` (stereo not given), the TGI in experiment [1] is 75.9 µM; in [2] it was more than 100 µM; in experiment [3], more than 100 µM; in experiment [4], 42.3 µM; in experiment [5] it was more than 64.1 µM; in experiment [6], 20 µM. Besides, the TGI in experiment [7] was more than 100 µM; in experiment [8], more than 83.7 µM; in experiment [9], more than 100 µM; in experiment [10], 33.9 µM.

In the case of `Cn1c(N2NC(=O)C(N=Nc3ccc(S(N)(=O)=O)cc3)C2=O)nc(-c2ccco2)c(C#N)c1=O` (stereo not given), the GI50 in experiment [1] is more than 50 µM; in [2], 8.64 µM; in experiment [3], 8 µM; in experiment [4], 8.08 µM; in [5], 9.65 µM; in [6] it was more than 50 µM. Further, the GI50 was more than 50 µM in experiment [7], more than 50 µM in experiment [8], more than 50 µM in experiment [9] and 5.42 µM in experiment [10]. In addition, the TGI was more than 50 µM in [1]; 33.5 µM in experiment [2]; 23.9 µM in [3]; 18.7 µM in [4]; 26.1 µM in [5]; more than 50 µM in experiment [6]. Besides, the TGI was more than 50 µM in [7], more than 50 µM in [8], more than 50 µM in experiment [9] and 26.5 µM in experiment [10].

For `Cc1nn(CN2CCN(C)CC2)c(=S)n1/N=C/c1cccc2ccccc12`, the GI50 is 18.3 µM in experiment [1]; 20.5 µM in experiment [2]; 2.11 µM in [3]; 17.6 µM in experiment [4]; 18.2 µM in [5]; 21.3 µM in [6]. Besides, the GI50 is 20.6 µM in experiment [7], 20 µM in [8], 19.3 µM in experiment [9] and 19 µM in experiment [10]. Moreover, the TGI in experiment [1] was 34.7 µM; in experiment [2], 50.1 µM; in experiment [3], 19.4 µM; in experiment [4], 31.4 µM; in [5], 34.1 µM; in [6], 44.6 µM. Further, the TGI in experiment [7] was 46.7 µM; in experiment [8], 42.3 µM; in [9], 36.3 µM; in [10], 39.8 µM.
